Broadly, the IC50 is the concentration at which inhibition is half-maximal. A low value points to inhibition by little substance.

Data on 3 molecules can be found in article doi:10.1101/2023.02.03.527073v1 (biorxiv, 2023).

In assay [1] the target is T1, human Brd4 BD2 (hBrd4 BD2) (Homo sapiens, UniProt O60885). Kind of assay: HTRF competition with biotinylated H4ac4 peptide. The format is binding. A general note: Time-resolved FRET reads energy transfer from a long-lived donor to a nearby acceptor.
Assay [2] concerns the target T2, CgBdf1 BD1 (CgBD1) (Nakaseomyces glabratus, UniProt Q6FWV7).
T2 sequence (Q6FWV7 100-228): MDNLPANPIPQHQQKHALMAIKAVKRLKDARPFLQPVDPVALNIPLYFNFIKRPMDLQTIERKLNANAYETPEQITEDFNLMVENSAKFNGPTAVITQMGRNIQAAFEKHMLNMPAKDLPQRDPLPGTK
Put plainly: HTRF competition with biotinylated H4ac4 peptide. The format is binding.

Assay [3] has as its target T3, CgBdf1 BD2 (CgBD2) (Nakaseomyces glabratus, UniProt Q6FWV7).
T3 sequence (Q6FWV7 269-391): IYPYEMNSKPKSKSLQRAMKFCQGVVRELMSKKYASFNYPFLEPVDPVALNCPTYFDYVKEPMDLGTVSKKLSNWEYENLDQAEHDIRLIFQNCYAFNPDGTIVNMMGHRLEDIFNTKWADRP
Put plainly: HTRF competition with biotinylated H4ac4 peptide. It counts as binding.

The target of assay [4] is T4, human Brd4 BD1 (hBrd4 BD1) (Homo sapiens, UniProt O60885). Put plainly: HTRF competition with biotinylated H4ac4 peptide. It counts as binding.
For assay [5], the target named is T4, human Brd4 BD1 (hBrd4 BD1). Kind of assay: biochemical.
Assay [6] has as its target T1, human Brd4 BD2 (hBrd4 BD2). Kind of assay: biochemical.
In assay [7] the target is T3, CgBdf1 BD2 (CgBD2). Put plainly: biochemical.
Assay [8] concerns the target T2, CgBdf1 BD1 (CgBD1). Put plainly: biochemical.

Take `Cc1ccc(-c2nnc(C)c(NCc3cccs3)n2)cc1` [compound 24, 24]: the IC50 in assay [1] was greater than 20 µM; on CgBdf1 BD1 (CgBD1) [2], 2.23 ± 0.26 µM; on CgBdf1 BD2 (CgBD2) [3] it was greater than 20 µM; in assay [4], greater than 20 µM.

In the case of `Cn1nccc1C(=O)NCc1ccc(-c2nc(-c3cccs3)no2)s1` [compound 63, 63], the results for the IC50 (on CgBdf1 BD1 (CgBD1) [2]; in assay [4]; in assay [5]) were 0.61 ± 0.1 µM, 25.9 ± 7.9 µM and greater than 20 µM, respectively.

For the molecule `CC(=O)N1CCc2[nH]c3ccc(C(=O)Nc4ccc(N5CCOCC5)cc4)cc3c2C1` [compound 29, 29], the half-inhibitory concentration (IC50) in assay [6] is 0.44 µM; at CgBdf1 BD1 (CgBD1) [2] it was 1.81 ± 1.14 µM; on CgBdf1 BD2 (CgBD2) [7] it was 2.3 µM; on CgBdf1 BD2 (CgBD2) [3], 2.06 ± 0.23 µM; against CgBdf1 BD1 (CgBD1) [8], 1.1 µM; in assay [5], 2.9 µM.
